Data taken from patent publication US10696972B2, “Method for improving learning” (St. Jude Children's Research Hospital, Inc., priority 2015, dated 2020).

What was measured:
[1] = test system: Nt5e; assay: Cortical map plasticity in the ACx after passive tone exposure, Nt5e shRNA knock-down; assay type: in vivo, mouse; conditions: mature WT mice, shRNA injected into auditory thalamus, exposed to 11.4 kHz
Method: (§1) Mice were housed in ventilated sound-proof chambers with ad libitum food and water and maintained on a 12:12 hour light:dark cycle. Mice were exposed to continuous sound stimulation for 5 to 14 days, consisting of repeated trains of tones. Each train consisted of 5 tones delivered at 5 Hz. A pure tone of certain frequencies (7 kHz, 7.9 kHz, 9.8 kHz, 11.4 kHz, or 16.4 kHz) was used. The tone duration was 50 ms with 5-ms cosine onset/offset ramps at 70-dB sound pressure level (SPL). Trains were separated by 1 s. Naïve (nonexposed) mice were housed in a similar fashion but received no sound stimulation.
Mice were anesthetized with sodium pentobarbital (50 mg/kg) and chlorprothixene (0.2 mg) followed by supplemental doses of sodium pentobarbital (15-25 mg/kg supplements as needed). Spike responses to sound stimulation were recorded from the primary (A1) ACx (depth, 350-420 μm from the pial surface) with Epoxylite-coated tungsten microelectrodes (2.0 MΩ at 1 kHz; FHC, Brunswick, Me.). Frequency response areas (FRAs) were measured with randomly presented tone pips of varying frequency (4.0-44.6 kHz in 0.1-octave increments, 20-ms duration, 5-ms raised cosine onset/offset ramps, 500-ms intertone interval) and level (0- to 70-dB SPL in 10-dB increments). […] Cortical maps in the A1 were generated from FRAs measured at 30 to 40 sites per mouse, each separated by 50 to 100 μm. […]

[2] = test system: A1R mRNA; assay: Cortical map plasticity in the ACx after passive tone exposure, A1R shRNA knock-down; assay type: in vivo, mouse; conditions: adult WT mice, shRNA injected into auditory thalamus (MGv), passive exposure to a 9.8-kHz tone
Method: as §1
Mice were anesthetized with sodium pentobarbital (50 mg/kg) and chlorprothixene (0.2 mg) followed by supplemental doses of sodium pentobarbital (15-25 mg/kg supplements as needed). Spike responses to sound stimulation were recorded from the primary (A1) ACx (depth, 350-420 μm from the pial surface) with Epoxylite-coated tungsten microelectrodes (2.0 MΩ at 1 kHz; FHC, Brunswick, Me.). Frequency response areas (FRAs) were measured with randomly presented tone pips of varying frequency (4.0-44.6 kHz in 0.1-octave increments, 20-ms duration, 5-ms raised cosine onset/offset ramps, 500-ms intertone interval) and level (0- to 70-dB SPL in 10-dB increments). Tones were generated by an electrostatic speaker [Tucker-Davis Technologies (TDT), Alachua, Fla.], which was placed 10 cm from the contralateral ear of the mouse. The ipsilateral ear was plugged with agar. Spike responses to tone pips were amplified with an RA4PA fiber optic preamplifier, filtered (high pass=250 Hz, low pass=5000 Hz), and digitized with an RZ6 real-time processor (TDT). The threshold for spike detection was set at a signal-to-noise ratio of 3:1. TDT System 3 software (OpenEx) controlled both sound stimulus generation and response acquisition and was used for data storage. Cortical maps in the A1 were generated from FRAs measured at 30 to 40 sites per mouse, each separated by 50 to 100 μm. FRAs were analyzed with TDT System 3 software (Open Explorer) for characteristic frequencies (CFs) collated in bins of 0.22 octaves. […]

| Substance | percentage of sites with a CF of 11.4 kHz compared to naïve mice [1] | ACx map plasticity [2] |
| --- | --- | --- |
| Nt5e shRNA (1366): shRNA against Nt5e, lentivector; coding DNA 5′-GGAATCCATGTGGTGTACGATATTAACCG-3′ (SEQ ID NO: 13) | significantly larger percentage of sites with a CF of 11.4 kHz | – |
| scrambled (control) shRNA: scrambled control shRNA; coding DNA 5′-TACGTCCAAGGTCGGGCAGGAAGA-3′ (SEQ ID NO: 9) [reference compound] | – | no cortical map plasticity |
| A1R shRNA (789): shRNA against A1R mRNA, lentivector; coding DNA 5′-CCAGAAACCCAGCATCCTCATCTACATTG-3′ (SEQ ID NO: 11) | – | sufficient to induce ACx map plasticity |
| Nt5e shRNA (1264): shRNA against Nt5e, lentivector; coding DNA 5′-ACATTTGACCTCGTCCAATTAAAAGGGTC-3′ (SEQ ID NO: 12) | significantly larger percentage of sites with a CF of 11.4 kHz | – |
| A1R shRNA (123): shRNA against A1R mRNA, lentivector; coding DNA 5′-CGATGCTACCTTCTGCTTCATCGTATCCC-3′ (SEQ ID NO: 10) | – | sufficient to induce ACx map plasticity |
